Data taken from US9943563B2, “Compositions and methods for treating vitiligo” (Stealth Peptides International, Inc., priority 2013, dated 2018).
Entries after “also recorded” stand apart in the source; their conditions may differ. Square brackets hold non-standard residues; d marks the D form. Ends that are not written are not given here.

Tests used:
[1] = target: mu-opioid receptor (Homo sapiens, UniProt P35372); conditions: stated in the description, no test described; cited from earlier work
mu-opioid receptor, sequence (P35372 whole entry, species assumed): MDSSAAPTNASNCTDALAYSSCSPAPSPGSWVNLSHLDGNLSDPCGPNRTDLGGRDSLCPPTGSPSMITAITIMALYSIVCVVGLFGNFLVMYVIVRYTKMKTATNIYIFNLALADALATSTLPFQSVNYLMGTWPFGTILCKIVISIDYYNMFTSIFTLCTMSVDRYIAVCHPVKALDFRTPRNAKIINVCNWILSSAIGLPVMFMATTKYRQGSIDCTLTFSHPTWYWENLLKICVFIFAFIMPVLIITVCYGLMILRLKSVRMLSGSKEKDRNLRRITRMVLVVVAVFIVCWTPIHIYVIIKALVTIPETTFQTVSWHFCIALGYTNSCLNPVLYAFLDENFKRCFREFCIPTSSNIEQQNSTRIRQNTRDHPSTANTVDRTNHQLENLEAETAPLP

[2] = tested on: plasma membrane of several mammalian cell types; conditions: energy-independent manner; cited from earlier work
[3] = tested on: autologous vitiligo skin explants; test: T-cell accumulation and cytotoxic activity in autologous vitiligo skin explants; type: in vivo, human; conditions: vitiligo patients, 0.25 mg/kg/day for twelve weeks, perilesional T-cells co-cultured with autologous skin explants 2 days
Experimental: Active vitiligo patients are subdivided into 2 groups. Group I subjects are administered a daily dose of 0.25 mg/kg/day of D-Arg-2′,6′-Dmt-Lys-Phe-NH2 for twelve weeks whereas Group II vitiligo subjects are treated with drug vehicle and serve as controls. Punch-biopsies are obtained flanking the depigmented macule from Group I and Group II vitiligo subjects. These biopsies are cultured to promote T-cell growth according to the procedures described in Van Den Boom et al., Journal of Investigative Dermatology, 129: 2220-2232 (2009). The ability of these perilesional T-cells to infiltrate and actively kill melanocytes within the skin tissue microenvironment is tested using skin explant assays. Autologous skin explants are generated according to the procedures described in Van Den Boom et al., Journal of Investigative Dermatology, 129: 2220-2232 (2009). Perilesional T-cells are co-cultured with normally pigmented autologous skin explants for 2 days. T-cells are allowed to infiltrate the skin explants and migrate toward the melanocytes located at the dermal-epidermal junction. Skin explant cryosections are analyzed for the presence of infiltrated T-cells, melanocytes, and apoptosis by immunohistochemistry or immunofluorescence as described in Van Den Boom et al., Journal of Investigative Dermatology, 129: 2220-2232 (2009).

[4] = tested on: vitiligo mice; test: Progressive depigmentation in the pelage of the vitiligo mouse model; type: in vivo; conditions: 0.25 mg/kg/day for four weeks before plucking, 2 weeks after plucking dorsal hairs, vs untreated
Experimental: Vitiligo mice described in Lerner et al., Journal of Investigative Dermatology, 87: 299-304 (1986) are obtained. Vitiligo mice are subdivided into 2 groups. Group I mice are administered a daily dose of 0.25 mg/kg/day of D-Arg-2′,6′-Dmt-Lys-Phe-NH2 for four weeks before plucking dorsal hairs whereas Group II vitiligo mice are treated with drug vehicle before plucking. The regrowth of amelanotic hairs is monitored via light microscopy.

[5] = tested on: melanocytes from human subjects diagnosed with vitiligo (VHM); test: ATP production of melanocytes (fluorimetric determination); type: cell-based; conditions: 2 μM added each day for 3 days, vs untreated (0 μM)
Experimental: Melanocytes were isolated and cultured from two human patients diagnosed with vitiligo (VHM). Cultured melanocytes from each patient were divided into two groups, wherein each group was treated with D-Arg-2′,6′-Dmt-Lys-Phe-NH2 at 0 μM and 2 μM. D-Arg-2′,6′-Dmt-Lys-Phe-NH2 was added to the growth media each day for 3 days. After 3 days, the melanocytes were lysed and ATP levels were measures by fluorimetric determination. Each assay was performed in triplicate.

[6] = tested on: adoptive transfer mouse model of vitiligo; test: Epidermal depigmentation in an adoptive transfer mouse model of vitiligo; type: in vivo; conditions: adoptive transfer vitiligo mice, 0.25 mg/kg/day for four weeks; tail, nose, footpad; vs untreated
Experimental: Vitiligo mice described in Harris et al., Journal of Investigative Dermatology, 132: 1869-1876 (2012) are obtained. This adoptive transfer mouse model of vitiligo recapitulates the human condition by inducing epidermal depigmentation while sparing the hair. These mice are subdivided into 2 groups. Group I mice are administered a daily dose of 0.25 mg/kg/day of D-Arg-2′,6′-Dmt-Lys-Phe-NH2 for four weeks whereas Group II vitiligo mice are treated with drug vehicle and serve as controls. The loss of pigmentation in epidermal tissues such as the tail, nose and footpad is monitored via light microscopy.

[7] = tested on: melanocytes from human subjects diagnosed with vitiligo (VHM); test: Mitochondrial membrane potential of melanocytes (JC-1 probe); type: cell-based; conditions: peptide at 1.5 μM and 2.0 μM added each day for 7 days, vs 0 μM and untreated NHM
Experimental: Cultured melanocytes from each patient were divided into three groups, wherein each group was treated with D-Arg-2′,6′-Dmt-Lys-Phe-NH2 at 0 μM, 1.5 μM, and 2 μM. D-Arg-2′,6′-Dmt-Lys-Phe-NH2 added to the growth media each day for 7 days. After 7 days, mitochondrial membrane potential (ΔΨm) of the melanocytes were assessed with a JC-1 probe (see, e.g., JC-1 Mitochondrial Membrane Potential Assay Kit, Cayman Chemical Co., Ann Arbor, Mich.).

Substance: Tyr-D-Arg-Phe-Lys-NH2
- mu-opioid receptor agonist activity [1]: has mu-opioid receptor agonist activity

Substance: 2′,6′-Dmt-D-Arg-Phe-Lys-NH2
- penetration of the plasma membrane [2]: readily penetrates the plasma membrane

Substance: D-Arg-2′,6′-Dmt-Lys-Phe-NH2
- melanocyte survival rates in skin explants [3]: greater than untreated vitiligo explants
- rate of progressive depigmentation [4]: reduced rate of progressive depigmentation
- ATP production of VHM melanocytes [5]: elevated ATP production levels; also recorded: increased the ATP production
- mu-opioid receptor agonist activity [1]: does not have mu-opioid receptor agonist activity
- severity of depigmentation in epidermal tissues [6]: reduced severity of depigmentation
- mitochondrial membrane potential (ΔΨm) of VHM melanocytes [7]: returned the mitochondrial membrane potential of the VHM melanocytes to levels found in untreated NHM melanocytes; also recorded: increased the mitochondrial membrane potential
- mitochondrial membrane potential (ΔΨm) of VHM melanocytes ([7]; listed as D-Arg-2′6′-Dmt-Lys-Phe-NH2): nearly doubled

Substance: F[dR]FK-NH2
- mu-opioid receptor agonist activity [1]: does not have mu-opioid receptor agonist activity
